Reference: US12077503B2, “Substituted cyclic amides and their use as herbicides” (FMC CORPORATION, priority 2015, dated 2024)

Key:
Assay type in all cases: in vivo
[1] = system: ragweed (common ragweed, Ambrosia elatior); assay: Test A postemergence; settings: Ambrosia artemisiifolia, post-emergence, 240 h; for pest or weed control at 125 g/ha: 125 g ai/ha, postemergence, visual injury on 0 to 100 scale (0 no effect, 100 complete control), approx. 10 d, read-out: Ragweed plant response rating; for pest or weed control at 31 g/ha: Postemergence, 31 g ai/ha, visual injury after approx. 10 d, 0 to 100 scale, 0 no effect, 100 complete control, read-out: Plant response rating, Ragweed
Method in brief: (§1)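 Ratings of 0 (no effect) to 100 (complete control) come from visual comparison with untreated controls roughly 10 d after treatment. Test chemicals, formulated in a non-phytotoxic solvent mixture with surfactant, were applied either as a preemergence directed soil spray on seeded soil or postemergence to one- to two-leaf plants 2 to 10 cm tall.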

[2] = system: giant foxtail (Setaria faberii); assay: Test A postemergence; settings: Setaria faberi, post-emergence, 240 h; for pest or weed control at 125 g/ha: 125 g ai/ha, postemergence, visual injury on 0 to 100 scale (0 no effect, 100 complete control), approx. 10 d, read-out: Foxtail, Giant plant response rating; for pest or weed control at 31 g/ha: Postemergence, 31 g ai/ha, visual injury after approx. 10 d, 0 to 100 scale, 0 no effect, 100 complete control, read-out: Plant response rating, Foxtail, Giant
Method in brief: as §1

[3] = system: barnyardgrass (Echinochloa crus-galli); assay: Test A postemergence; settings: Echinochloa crus-galli, post-emergence, 240 h; for pest or weed control at 125 g/ha: 125 g ai/ha, postemergence, visual injury on 0 to 100 scale (0 no effect, 100 complete control), approx. 10 d, read-out: Barnyardgrass plant response rating; for pest or weed control at 31 g/ha: Postemergence, 31 g ai/ha, visual injury after approx. 10 d, 0 to 100 scale, 0 no effect, 100 complete control, read-out: Plant response rating, Barnyardgrass
Method in brief: as §1

corn (Zea mays) = assay: Test A postemergence; settings: Zea mays, post-emergence, 240 h; for plant injury at 125 g/ha: 125 g ai/ha, postemergence, visual injury on 0 to 100 scale (0 no effect, 100 complete control), approx. 10 d, read-out: Corn plant response rating; for Corn plant response rating (crop injury, 0 = no effect, 100 = complete kill) at 31 g/ha: Postemergence, 31 g ai/ha, visual injury after approx. 10 d, 0 to 100 scale, 100 complete control
Method in brief: as §1

[4] = system: ryegrass, Italian (Italian ryegrass, Lolium multiflorum); assay: Test A postemergence; settings: Lolium multiflorum, post-emergence, 240 h; for pest or weed control at 125 g/ha: 125 g ai/ha, postemergence, visual injury on 0 to 100 scale (0 no effect, 100 complete control), approx. 10 d, read-out: Ryegrass, Italian plant response rating; for pest or weed control at 31 g/ha: Postemergence, 31 g ai/ha, visual injury after approx. 10 d, 0 to 100 scale, 0 no effect, 100 complete control, read-out: Plant response rating, Ryegrass, Italian
Method in brief: as §1

Kochia (Kochia scoparia) [5] = assay: Test A postemergence; settings: Bassia scoparia, post-emergence, 240 h; for pest or weed control at 125 g/ha: 125 g ai/ha, postemergence, visual injury on 0 to 100 scale (0 no effect, 100 complete control), approx. 10 d, read-out: Kochia plant response rating; for pest or weed control at 31 g/ha: Postemergence, 31 g ai/ha, visual injury after approx. 10 d, 0 to 100 scale, 0 no effect, 100 complete control, read-out: Plant response rating, Kochia
Method in brief: as §1

[6] = system: blackgrass (Alopecurus myosuroides); assay: Test A postemergence; settings: Alopecurus myosuroides, post-emergence, 240 h; for pest or weed control at 125 g/ha: 125 g ai/ha, postemergence, visual injury on 0 to 100 scale (0 no effect, 100 complete control), approx. 10 d, read-out: Blackgrass plant response rating; for pest or weed control at 31 g/ha: Postemergence, 31 g ai/ha, visual injury after approx. 10 d, 0 to 100 scale, 0 no effect, 100 complete control, read-out: Plant response rating, Blackgrass
Method in brief: as §1

[7] = system: Galium (catchweed bedstraw, Galium aparine); assay: Test A postemergence; settings: Galium, post-emergence, 240 h; for pest or weed control at 125 g/ha: 125 g ai/ha, postemergence, visual injury on 0 to 100 scale (0 no effect, 100 complete control), approx. 10 d, read-out: Galium plant response rating; for pest or weed control at 31 g/ha: Postemergence, 31 g ai/ha, visual injury after approx. 10 d, 0 to 100 scale, 0 no effect, 100 complete control, read-out: Plant response rating, Galium
Method in brief: as §1

[8] = system: wheat (Triticum aestivum); assay: Test A postemergence; settings: Triticum aestivum, post-emergence, 240 h; for plant injury at 125 g/ha: 125 g ai/ha, postemergence, visual injury on 0 to 100 scale (0 no effect, 100 complete control), approx. 10 d, read-out: Wheat plant response rating; for plant injury at 31 g/ha: Postemergence, 31 g ai/ha, visual injury after approx. 10 d, 0 to 100 scale, 0 no effect, 100 complete control, read-out: Plant response rating, Wheat
Method in brief: as §1

[9] = system: pigweed (Amaranthus retroflexus); assay: Test A postemergence; settings: Amaranthus retroflexus, post-emergence, 240 h; for pest or weed control at 125 g/ha: 125 g ai/ha, postemergence, visual injury on 0 to 100 scale (0 no effect, 100 complete control), approx. 10 d, read-out: Pigweed plant response rating; for pest or weed control at 31 g/ha: Postemergence, 31 g ai/ha, visual injury after approx. 10 d, 0 to 100 scale, 0 no effect, 100 complete control, read-out: Plant response rating, Pigweed
Method in brief: as §1

[10] = system: sedge, umbrella (small-flower umbrella sedge, Cyperus difformis); assay: Test B flooded paddy test; settings: Cyperus difformis, 250 g ai/ha, Flood; 0 to 100 scale where 0 is no effect and 100 is complete control; read-out: Sedge, Umbrella plant response rating
Method in brief: (§2)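 Compound goes directly into floodwater once pots are flooded 3 cm above soil, targeting plants at two leaves; the water depth is then held for the test duration. Plants sit 13–15 d in a greenhouse and are rated visually, 100 denoting complete control.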

[11] = system: barnyardgrass (Echinochloa crus-galli); assay: Test B flooded paddy test; settings: Echinochloa crus-galli, 250 g ai/ha, Flood; 0 to 100 scale where 0 is no effect and 100 is complete control; read-out: Barnyardgrass plant response rating
Method in brief: as §2

[12] = system: ducksalad (Heteranthera limosa); assay: Test B flooded paddy test; settings: Heteranthera limosa, 250 g ai/ha, Flood; 0 to 100 scale where 0 is no effect and 100 is complete control; read-out: Ducksalad plant response rating
Method in brief: as §2

rice (Oryra sativa) = assay: Test B flooded paddy test; settings: Oryza sativa, 250 g ai/ha, Flood; 0 to 100 scale where 0 is no effect and 100 is complete control; read-out: Rice plant response rating
Method in brief: as §2

[13] = system: ragweed (common ragweed, Ambrosia elatior); assay: Test A preemergence; settings: Ambrosia artemisiifolia, pre-emergence, 240 h, 0 to 100 scale where 0 is no effect and 100 is complete control, read-out: Ragweed plant response rating; for pest or weed control at 31 g/ha: 31 g ai/ha, Preemergence; for pest or weed control at 125 g/ha: 125 g ai/ha, preemergence, approx. 10 d
Method in brief: as §1

[14] = system: giant foxtail (Setaria faberii); assay: Test A preemergence; settings: Setaria faberi, pre-emergence, 240 h, Preemergence; for pest or weed control at 31 g/ha: 31 g ai/ha, 0 to 100 scale where 0 is no effect and 100 is complete control, read-out: Foxtail, Giant plant response rating; for pest or weed control at 125 g/ha: 125 g ai/ha, visual injury rating after approximately 10 d, read-out: Foxtail, Giant plant response rating (0 to 100 scale, 0 is no effect, 100 is complete control)
Method in brief: as §1

[15] = system: barnyardgrass (Echinochloa crus-galli); assay: Test A preemergence; settings: Echinochloa crus-galli, pre-emergence, 240 h, Preemergence; for pest or weed control at 31 g/ha: 31 g ai/ha, 0 to 100 scale where 0 is no effect and 100 is complete control, read-out: Barnyardgrass plant response rating; for pest or weed control at 125 g/ha: 125 g ai/ha, visual injury rating after approximately 10 d, read-out: Barnyardgrass plant response rating (0 to 100 scale, 0 is no effect, 100 is complete control)
Method in brief: as §1

[16] = system: ryegrass, Italian (Italian ryegrass, Lolium multiflorum); assay: Test A preemergence; settings: Lolium multiflorum, pre-emergence, 240 h, 0 to 100 scale where 0 is no effect and 100 is complete control, read-out: Ryegrass, Italian plant response rating; for pest or weed control at 31 g/ha: 31 g ai/ha, Preemergence; for pest or weed control at 125 g/ha: 125 g ai/ha, preemergence, approx. 10 d
Method in brief: as §1

Kochia (Kochia scoparia) [17] = assay: Test A preemergence; settings: Bassia scoparia, pre-emergence, 240 h, 0 to 100 scale where 0 is no effect and 100 is complete control, read-out: Kochia plant response rating; for pest or weed control at 31 g/ha: 31 g ai/ha, Preemergence; for pest or weed control at 125 g/ha: 125 g ai/ha, preemergence, approx. 10 d
Method in brief: as §1

[18] = system: pigweed (Amaranthus retroflexus); assay: Test A preemergence; settings: Amaranthus retroflexus, pre-emergence, 240 h, 0 to 100 scale where 0 is no effect and 100 is complete control, read-out: Pigweed plant response rating; for pest or weed control at 31 g/ha: 31 g ai/ha, Preemergence; for pest or weed control at 125 g/ha: 125 g ai/ha, preemergence, approx. 10 d

SMILES	pest or weed control at 125 g/ha [1]	pest or weed control at 31 g/ha [1]	pest or weed control at 125 g/ha [2]	pest or weed control at 31 g/ha [2]	pest or weed control at 125 g/ha [3]	pest or weed control at 31 g/ha [3]	plant injury at 125 g/ha (corn (Zea mays))	Corn plant response rating (crop injury, 0 = no effect, 100 = complete kill) at 31 g/ha (corn (Zea mays))	pest or weed control at 125 g/ha [4]	pest or weed control at 31 g/ha [4]	pest or weed control at 125 g/ha (Kochia (Kochia scoparia) [5])	pest or weed control at 31 g/ha (Kochia (Kochia scoparia) [5])	pest or weed control at 125 g/ha [6]	pest or weed control at 31 g/ha [6]	pest or weed control at 125 g/ha [7]	pest or weed control at 31 g/ha [7]	plant injury at 125 g/ha [8]	plant injury at 31 g/ha [8]	pest or weed control at 125 g/ha [9]	pest or weed control at 31 g/ha [9]	also measured
Cc1ccncc1NC(=O)[C@H]1C(=O)N(C)C[C@@H]1c1ccc(C(F)(F)F)cc1 [Compound 1068]	0%	0%	0%	0%	0%	0%	0%	0%	0%	0%	0%	0%	0%	0%	0%	0%	0%	0%	0%	0%	pest or weed control at 250 g/ha [10]: 0%; pest or weed control at 250 g/ha [11]: 0%; pest or weed control at 250 g/ha [12]: 90%; pest or weed control at 250 g/ha (rice (Oryra sativa)): 0%; pest or weed control at 31 g/ha [13]: 0%; pest or weed control at 125 g/ha [13]: 0%; pest or weed control at 31 g/ha [14]: 0%; pest or weed control at 125 g/ha [14]: 0%; pest or weed control at 31 g/ha [15]: 0%; pest or weed control at 125 g/ha [15]: 0%; pest or weed control at 31 g/ha [16]: 0%; pest or weed control at 125 g/ha [16]: 0%; pest or weed control at 31 g/ha (Kochia (Kochia scoparia) [17]): 0%; pest or weed control at 125 g/ha (Kochia (Kochia scoparia) [17]): 0%; pest or weed control at 31 g/ha [18]: 0%; pest or weed control at 125 g/ha [18]: 0%
CN1C[C@H](c2ccc(C(F)(F)F)cc2)[C@@H](C(=O)Nc2cnccc2C(F)(F)F)C1=O [Compound 1065]	0%	0%	70%	0%	40%	0%	20%	0%	40%	0%	40%	0%	50%	0%	70%	40%	20%	0%	40%	0%	pest or weed control at 250 g/ha [10]: 0%; pest or weed control at 250 g/ha [11]: 0%; pest or weed control at 250 g/ha [12]: 100%; pest or weed control at 250 g/ha (rice (Oryra sativa)): 0%; pest or weed control at 31 g/ha [13]: 0%; pest or weed control at 125 g/ha [13]: 0%; pest or weed control at 31 g/ha [14]: 90%; pest or weed control at 125 g/ha [14]: 100%; pest or weed control at 31 g/ha [15]: 0%; pest or weed control at 125 g/ha [15]: 70%; pest or weed control at 31 g/ha [16]: 0%; pest or weed control at 125 g/ha [16]: 30%; pest or weed control at 31 g/ha (Kochia (Kochia scoparia) [17]): 0%; pest or weed control at 125 g/ha (Kochia (Kochia scoparia) [17]): 70%; pest or weed control at 31 g/ha [18]: 30%; pest or weed control at 125 g/ha [18]: 70%
